Source: PubChem BioAssay (NCI)
“And” between values parts separate entries of the source, which are not always exact repeats. Equal entries are not always repeated.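 These data come from cells grown in 96-well plates and exposed to compound for 48 hours at five concentrations. GI50: concentration for 50% inhibition of growth. The concentration for full growth arrest is given as TGI.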

Legend:
Assay in all cases: NCI anticancer screen, dose series, 48 h
CCRF-CEM leukemia = test system: CCRF-CEM leukemia
UACC-257 melanoma = test system: UACC-257 melanoma
NCI/ADR-RES ovarian = test system: NCI/ADR-RES ovarian
BT-549 breast = test system: BT-549 breast
A498 renal = test system: A498 renal
SW-620 colon = test system: SW-620 colon
A549 NSCLC = test system: A549 NSCLC
COLO 205 colon = test system: COLO 205 colon
HL-60(TB) leukemia = test system: HL-60(TB) leukemia
KM12 colon = test system: KM12 colon

Row | SMILES | TGI (CCRF-CEM leukemia) | TGI (UACC-257 melanoma) | TGI (NCI/ADR-RES ovarian) | TGI (BT-549 breast) | TGI (A498 renal) | TGI (SW-620 colon) | TGI (A549 NSCLC) | TGI (COLO 205 colon) | TGI (HL-60(TB) leukemia) | TGI (KM12 colon) | GI50 (CCRF-CEM leukemia) | GI50 (UACC-257 melanoma) | GI50 (NCI/ADR-RES ovarian) | GI50 (BT-549 breast) | GI50 (A498 renal) | GI50 (SW-620 colon) | GI50 (A549 NSCLC) | GI50 (COLO 205 colon) | GI50 (HL-60(TB) leukemia) | GI50 (KM12 colon)
1 | CC1CC[C@@H](C(C)C)[C@H](Oc2nnc(C3OC(CO)C(O)C3O)o2)C1 (some centres undefined) | > 100 µM | > 100 µM | > 100 µM | > 100 µM | > 100 µM | > 100 µM | > 100 µM | > 100 µM | > 100 µM | > 100 µM |  |  |  |  |  |  |  |  |  | 
2 | Cc1c(/C=N/NC(=S)Nc2ccccc2Cl)c(=O)n(-c2ccccc2)n1C | > 100 µM | > 100 µM | 76.1 µM | > 100 µM | > 100 µM | > 100 µM | > 100 µM | > 100 µM | > 100 µM | > 100 µM |  |  |  |  |  |  |  |  |  | 
3 | O=C(O[C@H]1[C@@H](O)[C@H](n2cnc3c(Cl)ncnc32)O[C@@H]1COC(c1ccccc1)(c1ccccc1)c1ccccc1)c1ccccc1 | > 100 µM | 41.5 µM | > 100 µM | 97.7 µM | 31 µM | > 100 µM | > 100 µM | 29.3 µM | 40.7 µM | 41.7 µM |  |  |  |  |  |  |  |  |  | 
4 | C[C@@H]1CC[C@H]2C(COCCOCC3=C(C(F)(F)F)O[C@@H]4O[C@@]5(C)CC[C@H]6[C@H](C)CC[C@@H]3[C@@]46OO5)=C(C(F)(F)F)O[C@@H]3O[C@@]4(C)CC[C@@H]1[C@]32OO4 | > 100 µM | > 100 µM | > 100 µM | > 100 µM | > 96.9 µM | > 100 µM | > 100 µM | 1.64 µM |  | > 6.15 µM | < 0.0209 µM | 0.407 µM | 5.57 µM | 0.224 µM | > 20.2 µM | 0.0293 µM | < 0.0332 µM | 0.0188 µM | < 0.0213 µM | 0.0305 µM
5 | CCCCCC/C=C\CCCCCCCCCc1cccc(O)c1C(=O)O | > 100 µM | > 100 µM | > 100 µM | > 100 µM | > 100 µM | > 100 µM | > 100 µM | > 100 µM | > 100 µM | > 100 µM |  |  |  |  |  |  |  |  |  | 
6 | C#CCOCC12C=CC(O1)C1C(=O)N(C)C(=O)C12 (centres undefined) | > 100 µM | 21 µM and > 100 µM | > 100 µM | > 100 µM | > 100 µM | > 100 µM | > 100 µM | > 100 µM | > 100 µM | > 100 µM |  |  |  |  |  |  |  |  |  | 
7 | CC1=C2C(=O)c3ccccc3C(=O)[C@H]2[C@H]2CCO[C@H]2O1 | 69.8 µM | 36.5 µM | 67 µM | 28.2 µM | > 100 µM | 53.1 µM | > 100 µM | > 100 µM | 61.1 µM | 58.1 µM |  |  |  |  |  |  |  |  |  | 
8 | NC(N)=N/N=C/c1c(-c2ccccc2)nc2n1ccc1nc(-c3ccccc3)c(/C=N/N=C(N)N)n12 | > 100 µM | 81.8 µM | > 100 µM | > 100 µM | > 100 µM | > 100 µM | > 100 µM | > 100 µM | > 100 µM | > 100 µM |  |  |  |  |  |  |  |  |  | 
9 | C=CCOC(=O)/C(=C\c1ccc(OC)c(OC)c1)c1ccc(OC)c(OC)c1 | > 100 µM | > 100 µM | > 100 µM | > 100 µM | > 100 µM | > 100 µM | > 100 µM | > 100 µM | 40.3 µM | > 100 µM |  |  |  |  |  |  |  |  |  | 
10 | CN(C(=O)Cc1cc(Cl)c(Cl)cc1N=C=S)[C@H]1CCCC[C@@H]1N1CCCC1 | 7.32 µM | 28 µM | 36.9 µM | 29.5 µM | 27 µM | 23.6 µM | 30.6 µM | 26.8 µM | 23.8 µM | 29.7 µM |  |  |  |  |  |  |  |  |  | 
11 | CN(C)c1ccc(N=Nc2ccc3nc[nH]c3c2)cc1 | > 100 µM | 59.5 µM | > 100 µM | > 100 µM | 41.5 µM | > 100 µM | > 100 µM | 50.4 µM | > 100 µM | 63.9 µM |  |  |  |  |  |  |  |  |  | 
12 | Cc1n[nH]c(=O)c2cc(-c3ccccc3)[nH]c12 | > 100 µM | > 100 µM | > 100 µM | > 100 µM | 92.3 µM | > 100 µM | > 100 µM | 71 µM | > 100 µM | > 100 µM |  |  |  |  |  |  |  |  |  | 
13 | Cc1ccc(N2C(=O)C3c4[nH]c5ccccc5c4C4CCC(C(C)(C)C)CC4C3C2=O)cc1 (centres undefined) | 15.4 µM | 40.5 µM | 31.8 µM | 39.3 µM | 31.3 µM | > 47.4 µM | 23.1 µM | 22.5 µM | > 74.9 µM | 65 µM |  |  |  |  |  |  |  |  |  | 
14 | O=C(N=S(NC(=O)c1ccccc1)C(Cl)(Cl)Cl)c1ccccc1 (centres undefined) | 12.1 µM | 83.8 µM | > 51.9 µM | 32.4 µM | 76.2 µM | 15.9 µM | > 100 µM | 29.4 µM | 13.7 µM | > 100 µM |  |  |  |  |  |  |  |  |  | 
15 | COc1nc2c(c(=O)n1C)N(C(C)=O)C1C(N2)OCC(OC(C)=O)C1OC(C)=O (centres undefined) | > 10 µM | > 10 µM | > 10 µM | > 10 µM | > 10 µM | > 10 µM | > 10 µM | > 10 µM | > 10 µM | > 10 µM |  |  |  |  |  |  |  |  |  | 
